{
  "source": "patent US6583127B1",
  "about": "“Use of etherlysophospholipids as antiinflammatory agents” (Inkeysa. SA, priority 1998, dated 2003)",
  "key": {"CD44": {"test_system": "CD44", "assay": "Cell surface expression of CD44 in human neutrophils (immunofluorescence flow cytometry)", "format": "cell-based", "conditions": "Medium = 100", "from_the_text": "(§1) Isolation and treatment of neutrophils.\n(§2) Monoclonal antibodies. […] The antibodies are commercially available.\n(§3) Immunofluorescence flow cytometry. […] Results were expressed as relative MFI (rMFI), such that\n(§4) rMFI=(MFIagent×100)/MFImedium\n(§5) Background fluorescence was substracted from all values."}, "L-selectin (CD62L)": {"test_system": "L-selectin (CD62L)", "assay": "Cell surface expression of L-selectin in human neutrophils (immunofluorescence flow cytometry)", "format": "cell-based", "conditions": "for L-Selectin cell surface expression (rMFI): Medium = 100", "from_the_text": "as §1, §2, §3, §4, §5"}, "[1]": {"test_system": "Mouse bone marrow derived macrophages", "assay": "Superoxide anion generation in macrophages (lucigenin chemoluminescent assay)", "format": "cell-based", "conditions": "1 or 3 μg/ml, 24 h; Zymosan-initiated; versus untreated controls (FIG. 2)", "description": "Mouse bone marrow derived macrophages were incubated for 24 h at 37° C. in MEM+10% FCS to a concentration of 10^6 cells/ml in the absence or presence of ELPs IES01 and IEC01 at the concentration of 1 or 3 μg/ml. The O2^− free radicals were measured in a chemoluminescent assay that detects the photons generated by the reaction of superoxid anions with lucigenin. The liberated photons are counted with a luminometer Microlumat LB96P, Berthold, Wildbad, Germany. Collected macrophages are resuspended in 0.2 ml at a concentration of 10^6/ml in HEPES buffered medium containing 540 μg/ml lucigenin. Superoxid production is initiated by adding 50 mg of Zymosan and the emission of photons is measured with a luminometer for 2 h."}, "[2]": {"test_system": "PGE2 production in murine fibroblasts 3T3", "assay": "PGE2 measurement in 3T3 cells (enzyme immunoassay)", "format": "cell-based, Mouse", "description": "(§6) Cell culture. Human promyelocytic HL-60 cells and promonocytic U937 cells were grown in RPMI-1640 culture medium supplemented with 10% (v/v) heat-inactivated fetal calf serum, 2 mM L-glutamine, 100 units/ml penicillin and 24 μg/ml gentamicin. Mouse 3T3 fibroblasts were grown in Dulbecco's modified Eagle's medium (DMEM) supplemented with 10% (v/v) heat-inactivated fetal calf serum, 2 mM L-glutamine, 100 units/ml penicillin and 24 μg/ml gentamicin. Cells were incubated at 37° C. in a humidified atmosphere at 5% CO2 and 95% air.\nProstaglandin E2 (PGE2) measurement. 3T3 cells (1.5×10^5 in 100 μl in complete DMEM culture medium) were incubated overnight at 37° C. (5% CO2) in 96-well microtitre plates (tissue-culture grade). Then, the distinct agents were added in 100 μl complete DMEM culture medium for 20 min at 37° C. After washing thoroughly the cells with PBS, cells were lysed and intracellular PGE2 was measured using an enzyme immunoassay kit (Amersham Pharmacia Biotech, Buckinghamshire, UK) following the manufacturer's instructions. Data obtained in duplicate measurements were converted into actual amounts of PGE2 using a calibration curve run in parallel with defined amounts of PGE2."}, "cytosolic PLA2": {"test_system": "cytosolic PLA2", "assay": "Semiquantitative RT-PCR of cytosolic PLA2 expression in HL-60 cells", "format": "cell-based, human", "conditions": "HL-60 cells (FIG. 9)", "description": "as §6\nReverse transcriptase polymerase chain reaction (RT-PCR). Total RNA was extracted from human neutrophils and cell lines using TRIZOL reagent (GIBCO-BRL) following the manufacturer's instructions. RNA preparations were carefully checked by gel electrophoresis and found to be free of DNA contamination. For the RT reaction, total RNA (10 μg) was primed with oligo-dt and reverse-transcribed into cDNA with 30 units of M-MLV reverse transcriptase from Promega according to manufacturer's instructions in a final volume of 20 μL. The mixture was incubated at 37° C. for 90 min. The generated cDNA was used for the semi-quantitative RT-PCR and the β-actin gene was used as an internal control. […]"}, "phospholipase A2 (PLA2)": {"test_system": "phospholipase A2 (PLA2)", "assay": "[3H]arachidonic acid release as assay for PLA2 activity", "format": "cell-based", "conditions": "FIG. 10", "description": "Measurement of arachidonic acid release. Arachidonic acid release was measured as an assay for phospholipase A2 (PLA2) activity, because this enzyme activity constitutes the major pathway controlling arachidonic acid release. Cells (5×10^5/ml) were labeled overnight with 0.1 μCi of [^3H]arachidonic acid/ml in RPMI-1640 culture medium containing 10% fetal calf serum. Then cells were washed four times with culture medium, and cells were resuspended in […] culture medium in the absence of serum in the absence (control) or in the presence of distinct agents for the times indicated in the respective figures. After this period, cells were pelleted by centrifugation and supernatants were transferred to scintillation vials and counted for radioactivity. Results are shown as cpm of labelled arachidonic acid released to the extracellular medium."}},
  "note": "pIC50: −log10 of the molar value.",
  "data": [
    {"compound": "CCCCCCCCCCCCCCCCCCOCC(COP(=O)([O-])OCC[N+](C)(C)C)OC", "note": "(centres unmarked) [IEC01, Edelfosine]", "values": [
      {"measurement": "CD44 cell surface expression (rMFI)", "setting": "CD44; 10 ng/ml", "value": "97 ± 2"},
      {"measurement": "CD44 cell surface expression (rMFI)", "setting": "CD44; 100 ng/ml", "value": "84 ± 4"},
      {"measurement": "CD44 cell surface expression (rMFI)", "setting": "CD44; 500 ng/ml", "value": "75 ± 7"},
      {"measurement": "CD44 cell surface expression (rMFI)", "setting": "CD44; 1 μg/ml", "value": "48 ± 9"},
      {"measurement": "CD44 cell surface expression (rMFI)", "setting": "CD44; 5 μg/ml", "value": "40 ± 8"},
      {"measurement": "times more effective than aceclofenac in promoting L-selectin down-regulation", "setting": "L-selectin (CD62L); after correcting for the different molecular weights", "value": 100, "unit": "times"},
      {"measurement": "pIC50", "setting": "L-selectin (CD62L); converted from μg/ml values, read-out: IC50 for L-selectin down-regulation, corrected for molecular weight", "value": 6.71},
      {"measurement": "concentration at which L-selectin reduction reaches a maximum", "setting": "L-selectin (CD62L); human neutrophils", "value": 1, "unit": "µg/mL"},
      {"measurement": "IC50 for L-selectin down-regulation", "setting": "L-selectin (CD62L); human neutrophils (FIG. 1)", "value": "about 0.1 μg/ml"},
      {"measurement": "time for decrease in cell surface L-selectin content to reach a maximum", "setting": "L-selectin (CD62L); human neutrophils (data not shown)", "value": "≤ 5", "unit": "min"},
      {"measurement": "L-Selectin cell surface expression (rMFI)", "setting": "L-selectin (CD62L); human neutrophils, 10 ng/ml", "value": "83.5 ± 4"},
      {"measurement": "L-Selectin cell surface expression (rMFI)", "setting": "L-selectin (CD62L); human neutrophils, 100 ng/ml", "value": "56 ± 6"},
      {"measurement": "L-Selectin cell surface expression (rMFI)", "setting": "L-selectin (CD62L); human neutrophils, 500 ng/ml", "value": "35 ± 5.5"},
      {"measurement": "L-Selectin cell surface expression (rMFI)", "setting": "L-selectin (CD62L); human neutrophils, 1 μg/ml", "value": "18 ± 6"},
      {"measurement": "L-Selectin cell surface expression (rMFI)", "setting": "L-selectin (CD62L); human neutrophils, 5 μg/ml", "value": "22 ± 8"},
      {"measurement": "amount of O2− free radicals produced by macrophages (inhibition, in words)", "setting": "[1]", "value": "higher"},
      {"measurement": "pg PGE2 (intracellular)", "setting": "[2]; 3T3 cells, 10 μM, 20 min at 37° C., Control 112 ± 21", "value": "148 ± 22", "unit": "pg"},
      {"measurement": "effect on PGE2 production (in words)", "setting": "[2]; 3T3 fibroblasts, ionomycin-induced PGE2", "value": "no significant inhibition"},
      {"measurement": "mRNA expression of cytosolic PLA2", "setting": "cytosolic PLA2", "value": "did not affect"},
      {"measurement": "PLA2 activity, as measured by [3H]arachidonic acid release", "setting": "phospholipase A2 (PLA2)", "value": "able to stimulate"}
    ]}
  ]
}
